We go through five compounds from patent US11299503B2, “Compound, coating composition comprising the same, organic light emitting device using the same and method for manufacturing the same” (LG Chem, Ltd., priority 2018, dated 2022).

The nature of this data set: Solubility in toluene, precipitate check by tyndall effect. The class given is physicochemical. As to conditions: toluene 100 ml, left 30 minutes at room temperature (25° C.), dissolved amount measured. How it is done: In addition, Compound BD12, Compound BD24, Compound BD30, Compound BD38 and Compound C used in Example 1 to Example 4 and Comparative Example 1 were each introduced to a solvent (toluene 100 ml), and then left unattended for 30 minutes at room temperature (25° C.). After that, laser was passed through the solution to determine whether precipitates were formed through a […] effect, and the dissolved amount was measured.

For the compound `c1ccc([Si](c2ccccc2)(c2ccccc2)c2cccc(-c3ccccc3N(c3cccc([Si](c4ccccc4)(c4ccccc4)c4ccccc4)c3)c3cc4c5ccccc5c(N(c5cccc([Si](c6ccccc6)(c6ccccc6)c6ccccc6)c5)c5ccccc5-c5cccc([Si](c6ccccc6)(c6ccccc6)c6ccccc6)c5)cc4c4ccccc34)c2)cc1` [BD12], the Solubility came out at 10 wt %.
`c1ccc([Si](c2ccccc2)(c2ccccc2)c2cccc(-c3ccccc3N(c3ccc(-c4cc5c6ccccc6c(-c6ccc(N(c7cccc([Si](c8ccccc8)(c8ccccc8)c8ccccc8)c7)c7ccccc7-c7cccc([Si](c8ccccc8)(c8ccccc8)c8ccccc8)c7)cc6)cc5c5ccccc45)cc3)c3cccc([Si](c4ccccc4)(c4ccccc4)c4ccccc4)c3)c2)cc1` [BD24] had a Solubility of 10 wt %.
As for `CC(C)c1ccc([Si](c2ccc(C(C)C)cc2)(c2ccc(C(C)C)cc2)c2ccc(N(c3cccc(-c4cccc([Si](c5ccc(C(C)C)cc5)(c5ccc(C(C)C)cc5)c5ccc(C(C)C)cc5)c4)c3)c3cc4c5ccccc5c(N(c5ccc([Si](c6ccc(C(C)C)cc6)(c6ccc(C(C)C)cc6)c6ccc(C(C)C)cc6)cc5)c5cccc(-c6cccc([Si](c7ccc(C(C)C)cc7)(c7ccc(C(C)C)cc7)c7ccc(C(C)C)cc7)c6)c5)cc4c4ccccc34)cc2)cc1` [BD30], the Solubility worked out at 15 wt %.
With `CC(C)c1ccc([Si](c2ccc(C(C)C)cc2)(c2ccc(C(C)C)cc2)c2ccc(N(c3ccc(-c4cc5c6ccccc6c(-c6ccc(N(c7ccc([Si](c8ccc(C(C)C)cc8)(c8ccc(C(C)C)cc8)c8ccc(C(C)C)cc8)cc7)c7cccc(-c8cccc([Si](c9ccc(C(C)C)cc9)(c9ccc(C(C)C)cc9)c9ccc(C(C)C)cc9)c8)c7)cc6)cc5c5ccccc45)cc3)c3cccc(-c4cccc([Si](c5ccc(C(C)C)cc5)(c5ccc(C(C)C)cc5)c5ccc(C(C)C)cc5)c4)c3)cc2)cc1` [BD38] the figure was 15 wt %; with `c1ccc(-c2ccc(N(c3ccccc3)c3cc4c5ccccc5c(N(c5ccccc5)c5ccc(-c6ccccc6)cc5)cc4c4ccccc34)cc2)cc1` [Compound C, reference compound], 0.1 wt %.
